Some results are limits rather than exact numbers.

Broadly, the EC10 is the concentration at which the effect reaches the 10% level. Read a high EC10 as a need for much substance. As usually defined, the EC50 is the concentration giving half of the maximal effect. A higher EC50 goes with weaker potency. For orientation: EC90 means the concentration at which the effect reaches the 90% level. Low readings indicate greater potency, high ones weaker potency.

The test system of the experiment is PLC biosensor. Nature of the experiment: microbe, parasite or virus in culture. It is filed as cell-based, E. coli BL21. Conditions: for EC10: BL21; for Emax: BL21, read-out: Induction; for maximal fold induction: BL21, read-out: Signal range (max/min), substrate screening, PLC biosensor, E. coli BL21; for Induction: E. coli BL21, 0.32–1000 μM; for Output signal / efficacy: relative to the PLC biosensor response curve with ferulic acid. How it is done:
Cells were centrifuged, washed and re-suspended with PBS buffer. The expression output was then analyzed by monitoring the fluorescence normalised to cell density (RFU/OD600) in a multimode plate reader (Methods, ESI ^†).
The sequences containing the PLC, PPC and PferB promoters, a RBS, and a Hexa-Histidine tag, flanked by SphI/NdeI were synthetized (GeneART, ThermoFisher). The sequences were enzyme restricted with SphI/NdeI and cloned in pET44eGFP,2 upstream to the eGFP gene, replacing the T7 promoter region generating respectively, the pET44PLCeGFP, pET44PPCeGFP and pET44PferBeGFP vectors.
The FerCA DNA sequence containing the ferA and ferC genes, individually flanked by a PLacI promoter and an rrn_B1 terminator, was synthetized by GeneARTTM (ThermoFisher).
The construct was cloned in a p15 plasmid flanked by NaeI/KasI restriction sites generating […]
the p15FerCA vector. […]
Biosensors Performance and Screening Methods
Reporter controls and the biosensor systems PLC, PPC and PferB were respectively generated by transformation of pET44PLCeGFP, pET44PPCeGFP and pET44PFerBeGFP vectors alone or with p15FerCA in BL21 and DH10B chemically competent E. coli cells. A single colony of each system was grown in LB media supplemented with antibiotics at 37 °C with shaking at 180rpm for 16 hours. Cultures were diluted (1:100) in fresh LB media with appropriate antibiotics, re-incubated at 37 °C with shaking until OD ~0.6 and transferred (450 μL) to multi- […]
μM and 1000 μM. Induction plates were incubated at 37 °C, with shaking at 1000 RPM (Stuart microtitre plate shaker incubator) for 3 hours. Cells were harvested by centrifugation, washed twice and re-suspended with PBS buffer. Expression output was analyzed by monitoring the fluorescence normalised to cell density (RFU/OD) in a multimode plate reader. […]
Compounds for screening were selected using cinnamic acid as a reference structure. The 58 selected compounds were tested with the PLC biosensor in E. coli BL21 cells. The substrate screening assays were performed using concentrations ranging from 0.32 μM to 1000 μM, as described for Ferulic acid. […]
Data Processing and Curve Fitting
Biosensor signal output (eGFP expression) was measured as Relative Fluorescence Units (RFU) and normalised to cell density (OD600). The background auto-fluorescence of E. coli was subtracted from RFU/OD and was normalised (%) to the pLC biosensor response curve to ferulic acid for each experiment. The normalised data was plotted and fitted with a dose-response curve using the Levenberg Marquardt logistic growth/sigmoidal algorithm, using the Origin 2015 (OriginLab, Northampton MA USA) program. The biomass screening data was […]

Where [1] appears, read: Escherichia coli, BL21, substrate screening, PLC biosensor, E. coli BL21.
[2] abbreviates: substrate screening, PLC biosensor, E. coli BL21.
Where [3] appears, read: substrate screening, PLC biosensor.

For the compound `COc1ccc(C=CC(=O)O)cc1O` [compound 5, 3-Hydroxy-4-methoxycinnamic acid], under “Escherichia coli”, it took 36.3 µM to reach the 10% level (EC10), the Emax is above 70% and the maximal fold induction came to 33.5. Under setting [1], this compound showed a half-maximal effective concentration (EC50) above 200 µM and an EC90 of 1510 µM. The compound further had an EC50 under setting [2] of 234 ± 15.4 µM. Further, under setting [3], the Induction entry is “H (high output signals, and hence good efficacy (>70%))”.

Consider `Cc1ccc(C=CC(=O)O)cc1` [compound 29, 4-methylcinnamic acid], for which the “Activity against the FerC biosensor” value under setting [2] is given as “devoid of activity”.

As to `COc1cc(CCC(=O)O)ccc1O` [compound 12, 3-(4-Hydroxy-3-methoxyphenyl)propionic acid], where the note is “Escherichia coli”, the EC10 stood at 702 µM, the Emax is below 40% and the maximal fold induction is 3.3. The compound also had a 90% effect concentration (EC90) under setting [1] of 31300 µM. Further, the “Activity against the FerC biosensor” value under setting [2] is listed as “low activity”. In addition, the Induction entry under setting [3] is listed as “L (low signals (<40%))”. In addition, the “Output signal / efficacy” value (substrate screening) was below 40%.

As for `O=C(O)C=Cc1ccc(O)cc1O` [compound 7, 2,4-Dihydroxycinnamic acid], for the setting “Escherichia coli”, it took 131 µM to reach the 10% level (EC10), the Emax was in the range of 40 to 60% and the maximal fold induction came to 9.6. Under setting [1], the response was half-maximal at 823 ± 45.6 µM (EC50) and the EC90 was 5170 µM. Moreover, under setting [3], the Induction entry is “M (moderate signal (60–40%))”.

Turning to `COc1cccc(C=CC(=O)O)c1` [compound 13, 3-Methoxycinnamic acid], under “Escherichia coli”, the concentration for an effect of 10% (EC10) turned out to be 816 µM, the Emax was below 40% and the maximal fold induction was 4.8. Besides, the Induction result under setting [3] was “L (low signals (<40%))”. Further, the “Output signal / efficacy” value (substrate screening) was below 40%.

As for `COc1cc(C=CC(=O)O)cc(O)c1O` [compound 6, 3,4-Dihydroxy-5-methoxycinnamic acid], where the note is “Escherichia coli”, the EC10 was found to be 33.9 µM, the Emax lay within 40 to 60% and the maximal fold induction was found to be 14.8. Further, under setting [1], the response was half-maximal at 746 ± 118 µM (EC50) and the 90% effect level (EC90) was put at 16400 µM. Under setting [2], the “Change in potency relative to sinapic acid (4)” value was 2.5 fold. Under setting [3], the Induction result was “M (moderate signal (60–40%))”. Besides, the “Sensing range (predicted)” value (substrate screening, PLC biosensor, E. coli BL21, text) was 485 fold.

Take `O=C(O)C=Cc1ccc(O)cc1` [compound 2, p-Coumaric acid]: for the setting “Escherichia coli”, the EC10 came out at 3.9 µM, the Emax was above 70% and the maximal fold induction was 25. Under setting [1], this compound showed a concentration for a half-maximal effect (EC50) of 26.1 ± 3.8 µM and a concentration for an effect of 90% (EC90) of 174 µM. Under setting [3], the Induction entry is “H (high output signals, and hence good efficacy (>70%))”.

As for `O=C(O)/C=C/c1ccccc1` [compound 14, cinnamic acid], under setting [2], the “Activity against the FerC biosensor” value was “no activity”.

`COc1ccc(C=CC(=O)O)cc1OC` [compound 8, 3,4-Dimethoxycinnamic acid]: for the setting “Escherichia coli”, the 10% effect concentration (EC10) amounted to 228 µM, the Emax is 40 to 60% and the maximal fold induction turned out to be 11.4. Under setting [1], this compound had a concentration for a half-maximal effect (EC50) of 825 ± 13.2 µM and an EC90 of 2990 µM. Moreover, under setting [3], the Induction entry is on record as “M (moderate signal (60–40%))”.

Turning to `Nc1ccc(C=CC(=O)O)cc1` [compound 3, 3-(4-Aminophenyl)-2-propenoic acid], for the setting “Escherichia coli”, it took 12 µM to reach the 10% level (EC10), the Emax is above 70% and the maximal fold induction turned out to be 28.1. Besides, under setting [1], the EC50 came out at 110 ± 25.7 µM and it took 1010 µM to reach the 90% level (EC90). Under setting [3], the Induction result is “H (high output signals, and hence good efficacy (>70%))”.

Turning to `O=C(O)/C=C/c1ccc(O)c(O)c1` [compound 9, Caffeic acid], under “Escherichia coli”, the EC10 turned out to be 222 µM, the Emax is 40 to 60% and the maximal fold induction worked out at 11.2. Under setting [1], this compound registered an EC50 of 1180 ± 88.5 µM and an EC90 of 6250 µM. Moreover, under setting [3], the Induction result is “M (moderate signal (60–40%))”.

Take `O=C(O)C=Cc1ccc([N+](=O)[O-])cc1` [compound 10, 4-Nitrocinnamic acid]: under “Escherichia coli”, the 10% effect level (EC10) was put at 158 µM, the Emax is 40 to 60% and the maximal fold induction was found to be 9.5. Further, under setting [1], the 50% effective concentration (EC50) came to 1560 ± 96.8 µM and the concentration for an effect of 90% (EC90) was found to be 15500 µM. Under setting [3], the Induction entry is “M (moderate signal (60–40%))”.
